Measured values: ChEMBL document CHEMBL5325501, “Discovery of BWA-522, a First-in-Class and Orally Bioavailable PROTAC Degrader of the Androgen Receptor Targeting N-Terminal Domain for the Treatment of Prostate Cancer” (J Med Chem, 2023)
Each block holds one compound with its values, some of them ahead of it. Calls of active or inactive are those of the source. The calls are words filed in the database; no cut-off is given here.

Experiments:
[1] = Tmax in ICR mouse at 10 mg/kg, po measured by LC-MS/MS analysis; assay type: ADME, organism-based; conditions: in vivo
[2] = Cmax in ICR mouse at 10 mg/kg, po measured by LC-MS/MS analysis; assay type: ADME, organism-based; design: dose 10 mg/kg, route po; conditions: in vivo
[3] = Half-life in ICR mouse at 2 mg/kg, iv measured by LC-MS/MS analysis; assay type: ADME, organism-based; conditions: in vivo
[4] = Tmax in ICR mouse at 2 mg/kg, iv measured by LC-MS/MS analysis; assay type: ADME, organism-based; conditions: in vivo
[5] = Cmax in ICR mouse at 2 mg/kg, iv measured by LC-MS/MS analysis; assay type: ADME, organism-based; design: dose 2 mg/kg, route iv; conditions: in vivo
[6] = AUC(0 to t) in ICR mouse at 2 mg/kg, iv measured by LC-MS/MS analysis; assay type: ADME, organism-based; design: dose 2 mg/kg, route iv; conditions: in vivo
[7] = Clearance in ICR mouse at 2 mg/kg, iv measured by LC-MS/MS analysis; assay type: ADME, organism-based; conditions: in vivo
[8] = Half-life in ICR mouse at 10 mg/kg, po measured by LC-MS/MS analysis; assay type: ADME, organism-based; conditions: in vivo
[9] = AUC(0 to t) in ICR mouse at 10 mg/kg, po measured by LC-MS/MS analysis; assay type: ADME, organism-based; design: dose 10 mg/kg, route po; conditions: in vivo
[10] = Oral bioavailability in ICR mouse at 10 mg/kg measured by LC-MS/MS analysis; assay type: ADME, organism-based; conditions: in vivo
[11] = target: T1, von Hippel-Lindau disease tumor suppressor/Androgen receptor (Homo sapiens, UniProt P10275+P40337); assay: PROTAC activity at VHL/full-length AR in human LNCaP cells assessed as induction of AR degradation at 1 uM by Western blot analysis relative to control; assay type: cell-based
Target sequence in this assay (P10275 whole entry, looked up): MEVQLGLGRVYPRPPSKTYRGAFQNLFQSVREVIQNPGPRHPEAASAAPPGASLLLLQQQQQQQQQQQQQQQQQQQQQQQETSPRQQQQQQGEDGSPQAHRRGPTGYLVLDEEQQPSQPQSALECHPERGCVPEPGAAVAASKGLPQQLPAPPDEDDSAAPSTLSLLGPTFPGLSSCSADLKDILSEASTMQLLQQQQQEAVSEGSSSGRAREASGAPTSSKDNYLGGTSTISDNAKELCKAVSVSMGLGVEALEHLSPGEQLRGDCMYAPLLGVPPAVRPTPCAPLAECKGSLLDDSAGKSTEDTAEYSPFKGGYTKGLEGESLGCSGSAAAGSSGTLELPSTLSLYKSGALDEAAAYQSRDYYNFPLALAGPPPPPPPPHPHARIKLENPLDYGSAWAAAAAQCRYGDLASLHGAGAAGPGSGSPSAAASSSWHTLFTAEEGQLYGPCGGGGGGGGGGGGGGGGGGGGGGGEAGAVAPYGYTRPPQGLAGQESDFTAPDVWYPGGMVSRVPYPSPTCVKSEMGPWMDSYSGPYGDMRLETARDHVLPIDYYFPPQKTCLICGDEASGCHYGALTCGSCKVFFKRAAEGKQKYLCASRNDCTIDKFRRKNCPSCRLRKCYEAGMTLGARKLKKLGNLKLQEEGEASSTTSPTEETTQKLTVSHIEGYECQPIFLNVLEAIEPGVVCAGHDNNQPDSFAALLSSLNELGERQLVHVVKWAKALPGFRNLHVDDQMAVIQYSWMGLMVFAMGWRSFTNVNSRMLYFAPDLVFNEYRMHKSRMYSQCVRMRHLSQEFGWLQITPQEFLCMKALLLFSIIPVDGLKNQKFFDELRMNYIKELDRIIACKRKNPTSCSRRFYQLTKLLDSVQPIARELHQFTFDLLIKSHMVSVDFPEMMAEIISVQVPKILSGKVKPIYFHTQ
Target sequence in this assay (P40337 whole entry, looked up): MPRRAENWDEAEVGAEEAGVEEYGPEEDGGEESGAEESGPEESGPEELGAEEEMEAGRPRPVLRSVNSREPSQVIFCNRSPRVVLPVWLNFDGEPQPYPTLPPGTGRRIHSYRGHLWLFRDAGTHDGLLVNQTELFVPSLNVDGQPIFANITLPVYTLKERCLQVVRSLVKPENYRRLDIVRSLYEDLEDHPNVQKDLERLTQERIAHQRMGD

[12] = target: T1, von Hippel-Lindau disease tumor suppressor/Androgen receptor; assay: PROTAC activity at VHL/full-length AR in human LNCaP cells assessed as induction of AR degradation at 5 uM by Western blot analysis relative to control; assay type: cell-based
Target sequence in this assay (P10275 whole entry, looked up): as the sequence (P10275 whole entry, looked up) above
Target sequence in this assay (P40337 whole entry, looked up): as the sequence (P40337 whole entry, looked up) above

[13] = target: T1, von Hippel-Lindau disease tumor suppressor/Androgen receptor; assay: PROTAC activity at VHL/full-length AR in human VCaP cells assessed as induction of AR degradation at 1 uM by Western blot analysis relative to control; assay type: cell-based
Target sequence in this assay (P10275 whole entry, looked up): as the sequence (P10275 whole entry, looked up) above
Target sequence in this assay (P40337 whole entry, looked up): as the sequence (P40337 whole entry, looked up) above

[14] = target: T1, von Hippel-Lindau disease tumor suppressor/Androgen receptor; assay: PROTAC activity at VHL/full-length AR in human VCaP cells assessed as induction of AR degradation at 5 uM by Western blot analysis relative to control; assay type: cell-based
Target sequence in this assay (P10275 whole entry, looked up): as the sequence (P10275 whole entry, looked up) above
Target sequence in this assay (P40337 whole entry, looked up): as the sequence (P40337 whole entry, looked up) above

[15] = tested on: von Hippel-Lindau disease tumor suppressor/Androgen receptor (Homo sapiens), P10275+P40337 [UNDEFINED MUTATION]; assay: PROTAC activity at VHL/AR-V7 in human VCaP cells assessed as induction of AR degradation at 1 uM by Western blot analysis relative to control; assay type: cell-based
Chain of von Hippel-Lindau disease tumor suppressor/Androgen receptor (Homo sapiens), P10275+P40337 [UNDEFINED MUTATION] (P10275 whole entry, looked up, stated change not applied): as the sequence (P10275 whole entry, looked up) above
Chain of von Hippel-Lindau disease tumor suppressor/Androgen receptor (Homo sapiens), P10275+P40337 [UNDEFINED MUTATION] (P40337 whole entry, looked up, stated change not applied): as the sequence (P40337 whole entry, looked up) above

[16] = tested on: von Hippel-Lindau disease tumor suppressor/Androgen receptor (Homo sapiens), P10275+P40337 [UNDEFINED MUTATION]; assay: PROTAC activity at VHL/AR-V7 in human VCaP cells assessed as induction of AR degradation at 5 uM by Western blot analysis relative to control; assay type: cell-based
LNCaP [17] = assay: Antiproliferative activity against human LNCaP cells assessed as reduction in cell viability incubated for 6 days by CCK-8 assay; assay type: functional, cell-based; conditions: 144 h
VCaP = assay: Antiproliferative activity against human VCaP cells assessed as reduction in cell viability incubated for 6 days by CCK-8 assay; assay type: functional, cell-based; conditions: 144 h
CWR22R [18] = assay: Antiproliferative activity against enzalutamide-resistant human 22Rv1 cells assessed as reduction in cell viability incubated for 6 days by CCK-8 assay; assay type: functional, cell-based; conditions: 22Rv1, 144 h
LNCaP [19] = assay: Inhibition of colony formation in human LNCaP cells at 1 to 10 uM incubated for 2 weeks by crystal violet staining based analysis; assay type: functional, cell-based; conditions: dose 1-10 µM
CWR22R [20] = assay: Inhibition of colony formation in human 22Rv1 cells at 1 to 10 uM incubated for 2 weeks by crystal violet staining based analysis; assay type: functional, cell-based; conditions: dose 1-10 µM
LNCaP [21] = assay: Antitumor activity against human LNCaP cells xenografted in NOD SCID mouse assessed as tumor growth inhibition at 180 mg/kg, po administered daily for 4 weeks relative to control; assay type: functional; conditions: 672 h, read-out: TGI
[22] = target: T1, von Hippel-Lindau disease tumor suppressor/Androgen receptor; assay: PROTAC activity at VHL/AR-V7 in human 22Rv1 cells assessed as induction of AR degradation by Immunoblot analysis; assay type: cell-based
Target sequence in this assay (P10275 whole entry, looked up, change not shown): as the sequence (P10275 whole entry, looked up) above
Target sequence in this assay (P40337 whole entry, looked up, change not shown): as the sequence (P40337 whole entry, looked up) above

[23] = target: T2, Protein cereblon/Androgen receptor (Homo sapiens) (UniProt P10275+Q96SW2); assay: PROTAC activity at CRBN/full-length AR in human 22Rv1 cells assessed as induction of AR degradation at 0.03 to 1 uM incubated for 24 hrs by Western blot analysis; assay type: cell-based; conditions: dose 0.03-1 µM
T2 sequence (P10275 whole entry, looked up): as the sequence (P10275 whole entry, looked up) above
T2 sequence (Q96SW2 whole entry, looked up): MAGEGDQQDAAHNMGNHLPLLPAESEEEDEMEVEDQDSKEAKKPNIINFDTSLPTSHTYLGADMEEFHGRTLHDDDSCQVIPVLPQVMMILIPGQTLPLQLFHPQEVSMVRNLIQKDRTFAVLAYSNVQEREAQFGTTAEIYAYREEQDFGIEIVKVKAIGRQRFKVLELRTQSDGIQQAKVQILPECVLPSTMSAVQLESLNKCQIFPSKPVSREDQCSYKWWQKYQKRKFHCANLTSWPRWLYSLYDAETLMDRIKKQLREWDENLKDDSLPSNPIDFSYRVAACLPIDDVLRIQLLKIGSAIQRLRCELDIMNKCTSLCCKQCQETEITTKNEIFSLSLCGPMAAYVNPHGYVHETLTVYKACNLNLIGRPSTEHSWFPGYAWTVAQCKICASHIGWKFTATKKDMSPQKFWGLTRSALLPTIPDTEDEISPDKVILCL

[24] = target: T2, Protein cereblon/Androgen receptor (Homo sapiens); assay: PROTAC activity at CRBN/full-length AR in human […] cells assessed as induction of AR degradation at 0.03 to 1 uM incubated for 24 hrs by Western blot analysis; assay type: cell-based; conditions: dose 0.03-1 µM
[25] = tested on: Protein cereblon/Androgen receptor (Homo sapiens), P10275+Q96SW2 [UNDEFINED MUTATION]; assay: PROTAC activity at CRBN/AR-V7 in human 22Rv1 cells assessed as induction of AR degradation at 0.03 to 1 uM incubated for 24 hrs by Western blot analysis; assay type: cell-based; conditions: dose 0.03-1 µM
Chain of Protein cereblon/Androgen receptor (Homo sapiens), P10275+Q96SW2 [UNDEFINED MUTATION] (P10275 whole entry, looked up, stated change not applied): as the sequence (P10275 whole entry, looked up) above
Chain of Protein cereblon/Androgen receptor (Homo sapiens), P10275+Q96SW2 [UNDEFINED MUTATION] (Q96SW2 whole entry, looked up, stated change not applied): as the sequence (Q96SW2 whole entry, looked up) above

[26] = tested on: Protein cereblon/Androgen receptor (Homo sapiens), P10275+Q96SW2 [UNDEFINED MUTATION]; assay: PROTAC activity at CRBN/AR-V7 in human […] cells assessed as induction of AR degradation at 0.03 to 1 uM incubated for 24 hrs by Western blot analysis; assay type: cell-based; conditions: dose 0.03-1 µM
CWR22R [27] = assay: Cytotoxicity against human 22Rv1 cells assessed as cell death at high concentration incubated for 24 hrs; assay type: toxicity, cell-based
PC-3 [28] = assay: Cytotoxicity against human PC-3 cells assessed as cell death at high concentration incubated for 24 hrs; assay type: toxicity, cell-based; conditions: pc-3, 24 h
[29] = Cytotoxicity against human PC-3 cells assessed as inhibition of cell growth incubated for 6 days; assay type: toxicity, cell-based
RWPE-1 = assay: Cytotoxicity against human RWPE-1 cells assessed as reduction in cell viability incubated for 6 days by CCK8 assay; assay type: toxicity, cell-based; conditions: rwpe-1, 144 h, time 6 day
LNCaP [30] = assay: Antitumor activity against human LNCaP cells xenografted in NOD SCID mouse assessed as tumor growth inhibition at 10 mg/kg, po administered daily for 4 weeks relative to control; conditions: 672 h, read-out: TGI
CWR22R [31] = assay: Cytotoxicity against human 22Rv1 cells assessed as cell death at 5 uM; assay type: toxicity, cell-based
PC-3 [32] = assay: Cytotoxicity against human PC-3 cells assessed as cell death at 5 uM; assay type: toxicity, cell-based; conditions: pc-3, 5 µM

Structure (SMILES): Cc1ncsc1-c1ccc([C@H](C)NC(=O)[C@@H]2C[C@@H](O)CN2C(=O)[C@@H](NC(=O)CCCCNC(=O)COc2c(-c3csc(N4CCOCC4)n3)ccc(F)c2F)C(C)(C)C)cc1
EC50 [22]: 370 nM

Structure (SMILES): Cc1ncsc1-c1ccc(CNC(=O)[C@@H]2C[C@@H](O)CN2C(=O)[C@@H](NC(=O)Cn2cc(CCCCCOc3ccc(C(C)(C)c4ccc(OC[C@H](O)CCl)cc4)cc3)nn2)C(C)(C)C)cc1
Activity [11]: 27.5%
Activity [12]: 31.9%
Activity [13]: 48.9%
Activity [14]: 39.6%
Activity [15]: 38.1%
Activity [16]: 48.2%

Structure (SMILES): CNC(=O)c1ccc(N2C(=S)N(c3ccc(C#N)c(C(F)(F)F)c3)C(=O)C2(C)C)cc1F [ENZALUTAMIDE]
Activity (RWPE-1): Non-Toxic
inhibition in vivo at 10 mg/kg (LNCaP [30]): 72%

Structure (SMILES): CC(C)(c1ccc(OCC2CCN(CC3CCN(C4CCN(c5cccc6c5C(=O)N(C5CCC(=O)NC5=O)C6=O)CC4)CC3)CC2)cc1)c1ccc(OC[C@H](O)CCl)cc1 (stereo not given in full)
Activity (CWR22R [31]): Toxic
Activity (PC-3 [32]): Toxic

Structure (SMILES): CC(C)(c1ccc(OCC2CCN(CC3CCN(CC4CCN(c5cccc6c5C(=O)N(C5CCC(=O)NC5=O)C6=O)CC4)CC3)CC2)cc1)c1ccc(OC[C@H](O)CCl)cc1 (stereo not given in full)
Activity (CWR22R [31]): Toxic
Activity (PC-3 [32]): Toxic

More lines, main results first:

Tmax [1]: 2 h
Cmax [2]: 47 ng/mL
half-life [3]: 13.6 h
Tmax [4]: 6 min
Cmax [5]: 662 ng/mL
AUC(0-t) [6]: 645 ng·h/mL
clearance [7]: 38.6 mL/min/kg
half-life [8]: 20.5 h
AUC(0-t) [9]: 332 ng·h/mL
bioavailability [10]: 12.3%
Structure (SMILES): CC(C)(c1ccc(OCC2CCN(CC3CN(C4CCN(c5cccc6c5C(=O)N(C5CCC(=O)NC5=O)C6=O)CC4)C3)CC2)cc1)c1ccc(OC[C@H](O)CCl)cc1 (stereo not given in full)

Activity [11]: 22%
Activity [12]: 36.6%
Activity [13]: 43.2%
Activity [14]: 53.5%
Activity [15]: 56.4%
Activity [16]: 59.5%
Structure (SMILES): Cc1ncsc1-c1ccc(CNC(=O)[C@@H]2C[C@@H](O)CN2C(=O)[C@@H](NC(=O)Cn2cc(CCCCOc3ccc(C(C)(C)c4ccc(OC[C@H](O)CCl)cc4)cc3)nn2)C(C)(C)C)cc1

IC50 (LNCaP [17]): > 30000 nM
IC50 (VCaP): > 30000 nM
Structure (SMILES): CC(C)(c1ccc(OC[C@H](O)CO)cc1)c1ccc(OC[C@H](O)CCl)cc1
IC50 (CWR22R [18]): > 30000 nM
inhibition (LNCaP [19]): inactive
inhibition (CWR22R [20]): inactive
inhibition in vivo at 180 mg/kg (LNCaP [21]): 43%

Activity [23]: inactive
Activity [24]: inactive
Activity [25]: inactive
Activity [26]: inactive
Structure (SMILES): CC(C)(c1ccc(OCC2CCN(CC3CCN(CC4CCN(c5ccc6c(c5)C(=O)N(C5CCC(=O)NC5=O)C6=O)CC4)CC3)CC2)cc1)c1ccc(OC[C@H](O)CCl)cc1 (stereo not given in full)
Activity (CWR22R [27]): Toxic
Activity (PC-3 [28]): Toxic
IC50 at 6 days [29]: 1370 nM

Activity [11]: 17.6%
Activity [12]: 27.9%
Activity [13]: 18.4%
Activity [14]: 31%
Activity [15]: 45.9%
Activity [16]: 63.3%
Structure (SMILES): Cc1ncsc1-c1ccc(CNC(=O)[C@@H]2C[C@@H](O)CN2C(=O)[C@@H](NC(=O)Cn2cc(CCCOc3ccc(C(C)(C)c4ccc(OC[C@H](O)CCl)cc4)cc3)nn2)C(C)(C)C)cc1

Activity [23]: inactive
Activity [24]: inactive
Activity [25]: inactive
Activity [26]: inactive
Structure (SMILES): CC(C)(c1ccc(OCC2CCN(CC3CCN(C4CCN(c5ccc6c(c5)C(=O)N(C5CCC(=O)NC5=O)C6=O)CC4)CC3)CC2)cc1)c1ccc(OC[C@H](O)CCl)cc1 (stereo not given in full)
Activity (CWR22R [27]): Toxic
Activity (PC-3 [28]): Toxic
IC50 at 6 days [29]: 1030 nM

Tmax [1]: 0.2 h
Cmax [2]: 130 ng/mL
half-life [3]: 0.5 h
Tmax [4]: 6 min
Cmax [5]: 518 ng/mL
AUC(0-t) [6]: 303 ng·h/mL
clearance [7]: 111 mL/min/kg
half-life [8]: 1.8 h
AUC(0-t) [9]: 113 ng·h/mL
bioavailability [10]: 7.8%
Structure (SMILES): CC(C)(c1ccc(OCC2CCN(C(=O)CCCNc3ccc4c(c3)C(=O)N(C3CCC(=O)NC3=O)C4=O)CC2)cc1)c1ccc(OC[C@H](O)CCl)cc1 (stereo not given in full)
